Test results taken from patent US7183092B2, “Modified luciferase” (priority 2003, dated 2007).
“Also recorded” adds a separate entry of the source.

B1: CNBLuc03-02: modified Photinus pyralis luciferase: serine replaced by threonine at amino acid 239 and alanine replaced by threonine at amino acid 532 (protein, listed as Photinus pyralis)
chain: MEDAKNIKKGPAPFYPLEDGTAGEQLHKAMKRYALVPGTIAFTDAHIEVNITYAEYFEMSVRLAEAMKRYGLNTNHRIVVCSENSLQFFMPVLGALFIGVAVAPANDIYNERELLNSMNISQPTVVFVSKKGLQKILNVQKKLPIIQKIIIMDSKTDYQGFQSMYTFVTSHLPPGFNEYDFVPESFDRDKTIALIMNSSGSTGLPKGVALPHRTACVRFSHARDPIFGNQIIPDTAILTVVPFHHGFGMFTTLGYLICGFAVVLMYRFEEELFLRSLQDYKIQSALLVPTLFSFFAKSTLIDKYDLSNLHEIASGGAPLSKEVGEAVAKRFHLPGIRQGYGLTETTSAILITPEGDDKPGAVGKVVPFFEAKVVDLDTGKTLGVNQRGELCVRGPMIMSGYVNNPEATNALIDKDGWLHSGDIAYWDEDEHFFIVDRLKSLIKYKGYQVAPAELESILLQHPNIFDAGVAGLPDDDAGELPAAVVVLEHGKTMTEKEIVDYVASQVTTAKKFRGGVVFVDEVPKGLTGKLDTRKIREILIKAKKGGKSKL

What was measured:
Assay type in all cases: biochemical, Photinus pyralis
[1] = Stability of CNBLuc03-06 luciferase activity in the presence of HPV chemicals; conditions: FIG. 3, 1 mM DTT, 2.5% ethanol
Experimental: (§1) The stability of CNBLuc03-06 luciferase (SEQ ID NO: 4), both in purified form and in cell lysates, in the presence of a range of potential inhibitors was assayed. The basic assay contained 40 mM Tris-Acetate at pH 7.8, 1 mM MgSO4, 0.1 mM EDTA (ethylenediaminetetraacetic acid), 500 μM D-Luciferin and 500 μM ATP. Ethanol, DTT (dithiothreitol) and potential inhibitors were included at the concentrations stated.
This effect was confirmed by repeated experiments. With 20 ng purified CNBLuc03-06 luciferase (SEQ ID NO: 4) and in the presence of 2.5% ethanol, 1 mM DTT and 86 mM chloroform an activation of approximately 50% was measured, compared with the absence of chloroform.
The capacity of a variety HPV chemicals to inhibit or activate both wild type luciferase and CNBLuc03-06 luciferase (SEQ ID NO: 4) activity compared to controls without HPV chemicals was tested. Higher concentrations of chloroform (172 mM), methylene chloride (318 mM) or toluene (2.7 mM) were used. The basic assay contained 20ng of purified CNBLuc03-06, 1 mM DTT and 2.5% ethanol. CNBLuc03-06 luciferase (SEQ ID NO: 4) was exposed to each chemical for less than 5 minutes before measuring the light output.

[2] = Luciferase activity in the presence of anionic detergent SDS; conditions: FIG. 5; 20 ng purified luciferase, 0% ethanol, 33 mM DTT
Experimental: as §1
(§2) The stability of CNBLuc03-06 luciferase (SEQ ID NO: 4) in the presence of Triton X-100 and SDS was determined using 20 ng of purified luciferase per sample using the basic assay conditions and in the presence of 0% ethanol and 33 mM DTT. The effect of detergents on wild type luciferase was determined previously by W. J. Simpson and J. R. M. Hammond (W. J. Simpson and J. R. M. Hammond, (1991) Journal of Bioluminescence & Chemiluminescence, 6. 97–106, incorporated herein by reference). They reported the anionic detergents inhibit luciferase activity, and cationic detergents and nonionic detergents increase the reaction rate when the concentration of detergent exceeds critical micelle concentration (CMC) value but only up to certain concentrations.
SDS was used for testing the effect of anionic detergents.

[3] = Luciferase activity in the presence of nonionic detergent Triton X-100; conditions: FIG. 4; Triton X-100 up to 5%, 20 ng purified luciferase, 0% ethanol, 33 mM DTT
Experimental: as §1, §2

[4] = Specific activity of luciferase in the absence of DTT; conditions: 0 mM DTT, pH 7.8, 1 mM ATP, 500 μM D-Luciferin, three replicates
Experimental: Dithiothreitol (DTT) is an enzyme stabilizing agent used to reduce disulfide bonds (break the bonds) that are not normally formed under physiological conditions. Both purified wild type luciferase and CNBLuc03-06 luciferase (SEQ ID NO: 4) were diluted to 2 μg/ml in 40 mM Tris Acetate buffer at pH 7.8. The assay contained 40 mM Tris-Acetate at pH 7.8, 1 mM MgSO4, 0.1 mM EDTA, 500 μM D-Luciferin, 1 mM ATP, and 0 mM DTT. The light output was measured over time and three replicate measurements were made for each luciferase. The average value of the highest light output reading obtained over time was used to determine specific activity of each enzyme.

[5] = Stability of CNBLuc03-02 luciferase activity in the presence of HPV solvents; conditions: FIG. 2, 33 mM DTT, 10% ethanol; for inhibition of luciferase activity by toluene: 0.5% toluene
Experimental: as §1, with “CNBLuc03-02” for “CNBLuc03-06”, “2)” for “4), both in purified form and in cell lysates,”
Toluene inhibited CNBLuc03-02 luciferase (SEQ ID NO: 2) activity by approximately 40% and wild type luciferase activity by approximately 80%.

[6] = Stability of CNBLuc03-02 luciferase activity in the presence of chloroform; conditions: 5% ethanol, 33 mM DTT, 10 μl cell lysates; for inhibition of luciferase activity by 0.8% CHCl3: 0.8% chloroform; for original activity maintained: FIG. 1, different concentrations of chloroform
Experimental: as §1, with “CNBLuc03-02” for “CNBLuc03-06”, “2)” for “4), both in purified form and in cell lysates,”

[7] = Luciferase activity at different pHs; conditions: up to pH 11
Experimental: 20 ng of enzyme was used for each reaction. The pH was maintained at 7.8 by 40 mM Tris-acetate buffer and 33 mM DTT was added to each reaction. Both substrates, MGATP and D-Luciferin were saturated at 1 mM and 500 μM respectively. The values were normalized against the highest RLU (relative light units) at each pH optimum for comparison purpose. CNBLuc03-06 luciferase (SEQ ID NO: 4) has optimum pH of 9, but the high enough activity is retained at lower pHs in which enables us to use this mutant luciferase in case a wide range of pH is required for the assay (between 8–11).

[8] = Quantitative in vitro screening of mutant luciferases with chloroform; conditions: cell lysate supernatant
Experimental: Selected colonies from secondary screening were inoculated and grown in 5 ml LB broth containing 100 μg/ml ampicillin at 30° C. overnight. When the OD660 reached approximately 1, bacterial cells were harvested from 1.5 ml of culture by centrifugation for 3 min at 12,000 rpm (Eppendorf centrifuge model 5415D). Harvested cells were resuspended in 1 ml of 40 mM Tris-Acetate buffer, pH 7.8, and sonicated for 10 seconds using a Branson Sonifer 450, Duty cycle-40 and output control-4. The activity of each luciferase sample, prepared using 10 μl of supernatant from a subsequent centrifugation of sonicated bacterial cell culture, was tested in 200 μl total reaction volume by a Luminometer (Perkin Elmer, model Victor II). Each assay contained 40 mM Tris-Acetate, 1 mM MgSO4, 0.1 mM EDTA (ethylenediaminetetraacetic acid), 33 mM DTT (dithiothreitol), 500 μM D-Luciferin, 10% Ethanol and 500 μM ATP at pH 7.8. Some screening assays also contained 68.8 mM chloroform (0.8% vol.).
Different mutant luciferases were compared quantitatively by determining the percentage (%) inhibition of luciferase activity in the presence of chloroform relative to a control without chloroform. The specific activities of chloroform-tolerant mutants were generally lower as compared to wild type. […] The nucleotide sequence of CNBLuc03-02 is SEQ ID No: 1. The polypeptide sequence of the product of SEQ ID No: 1 is SEQ ID No: 2.

| Molecule | inhibition compared to controls, chloroform ([1]; chloroform 172 mM, exposure less than 5 minutes) | inhibition compared to controls, methylene chloride ([1]; methylene chloride 318 mM) | inhibition compared to controls, toluene ([1]; toluene 2.7 mM) | effect of SDS on luciferase activity [2] | effect of Triton X-100 on luciferase activity [3] | specific activity (highest light output) [4] | inhibition of luciferase activity by toluene ([5]; 10 μl cell lysate) | inhibition of luciferase activity by 0.8% CHCl3 [6] | original activity maintained [6] | activity at elevated pH [7] | specific activity compared to wild type ([8]; screening assay) | inhibition of luciferase activity in the presence of chloroform relative to a control without chloroform ([8]; screening, 68.8 mM chloroform (0.8% vol.), 10% ethanol, 33 mM DTT) | inhibition of luciferase activity by HPV solvents other than toluene ([5]; 0.5% of CH2Cl2, hexane, xylene or heptane, 10 μl cell lysate) | inhibition by HPV solvents compared with wild type ([5]; 0.5% of each solvent (CH2Cl2, toluene, hexane, xylene, heptane)) |
| --- | --- | --- | --- | --- | --- | --- | --- | --- | --- | --- | --- | --- | --- | --- |
| wild type luciferase: amino acid sequence of luciferase of the species Photinus pyralis (SEQ ID NO: 6) [reference compound] | about 70% | about 70% | about 20% | inhibited luciferase activity significantly | activated by the nonionic detergent, Triton X-100, up to final concentration of 1.25%; also recorded: increased until 1.25% then it started decreasing | 2.9±1.6×10^9 RLU/mg enzyme/sec | approximately 80% | over 80% | about 20% | completely inhibit |  |  |  |  |
| B1 |  |  |  |  |  |  | approximately 40% | ~30% | 80% |  | comparable activity | inhibited much less by chloroform | ≤ 15% | not inhibited as much as wild-type luciferase |
